Test systems include RXF 631; LXFL 529; HOP-18; XF498; DMS-273; MDA-N; Hs-578T; BT-549; T47D.
What all share (assay): NCI anticancer screen, dose series, 48 h

SMILES strings stand for the structures.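 Tested at 5 concentrations; 48 h exposure; 96-well plates; endpoints linearly interpolated, else capped at highest concentration. GI50 marks 50% less growth.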 The source made the active and inactive calls. Rule as the data show it: active = GI50 up to about 1.1 µM and inactive = higher.

As for `COc1cccc(C2N3CCCCC3[C@@H]3c4[nH]c5ccccc5c4CCN23)c1OC` (stereo partly specified), the GI50 was 16.4 µM (inactive) in the assay on RXF 631; 15.2 µM (inactive) in the assay on LXFL 529; 17 µM (inactive) in the assay with HOP-18; 15.2 µM (inactive) in the assay with XF498; 16 µM (inactive) in the assay with DMS-273.

Regarding `Nc1ncnc2c1ncn2C1OC(CSC(F)(F)F)C(O)C1O` (stereo unspecified), the GI50 with LXFL 529, with HOP-18 and in the assay with DMS-273 was > 100 µM (inactive) in each case.

Consider `Nc1ccc2nc(NCc3ccc(F)cc3)cnc2c1`, for which the GI50 with LXFL 529, with XF498 and with DMS-273 was > 100 µM (inactive) each time.

On to `N#CC(C(=N/O)/C(=N\O)C(C#N)c1ccccc1)c1ccccc1` (stereo unspecified), for which the GI50 in the assay with RXF 631, in the assay with LXFL 529, with HOP-18 and in the assay on XF498 was > 100 µM (inactive) throughout.

With `O=C(CCc1cc(-c2ccccc2)[nH]c(=S)n1)Nc1ccccc1[N+](=O)[O-]`, the GI50 in the assay on RXF 631 was > 100 µM (inactive); with LXFL 529 it was > 100 µM (inactive); in the assay on HOP-18, > 100 µM (inactive); with XF498, 42 µM (inactive); with DMS-273, > 100 µM (inactive).

`O=C1c2ccccc2C(=O)N1C/C=N/NS(=O)(=O)c1ccc(Cl)cc1`: the GI50 with RXF 631, in the assay with LXFL 529, in the assay with XF498 and in the assay on DMS-273 was > 100 µM (inactive) in each case.

In the case of `CCCCNS(=O)(=O)c1ccc(-c2ccc3c(c2)-c2ccc(S(=O)(=O)NCCCC)cc2S3(=O)=O)cc1`, the GI50 is 13.2 µM (inactive) in the assay on LXFL 529, 20.7 µM (inactive) in the assay with HOP-18, 10.3 µM (inactive) in the assay on XF498 and 20 µM (inactive) in the assay with DMS-273.

In the case of `O=C(O)/C=C/c1ccc(O)c(O)c1` [CAFFEIC ACID], the GI50 with RXF 631, with LXFL 529, with HOP-18 and in the assay with DMS-273 was > 100 µM (inactive) each time.

Take `CCN(CC)CCOc1ccc(C(O)(Cc2ccc(OC)cc2)c2ccccc2)cc1` (stereo unspecified): the GI50 with LXFL 529 was 17 µM (inactive); with XF498, 14 µM (inactive); with DMS-273, 14.3 µM (inactive).

For `CCOC(=O)NC1C2CC(=O)OC(O2)C1OC(C)=O` (stereo unspecified), the GI50 with RXF 631, with LXFL 529, in the assay with HOP-18 and in the assay with DMS-273 was > 100 µM (inactive) in each case.

With `C[C@@H](NC1CCCC[C@H]1O)c1ccccc1` (stereo partly specified), the GI50 in the assay on HOP-18, in the assay on XF498 and in the assay on DMS-273 was > 100 µM (inactive) throughout.

As to `Clc1ccc(-c2c(C3=NCCN3)nnn2-c2ccc(Cl)cc2)cc1`, the GI50 is 29.4 µM (inactive) in the assay on LXFL 529, > 100 µM (inactive) with HOP-18, 15 µM (inactive) in the assay on XF498 and 42.2 µM (inactive) with DMS-273.

On to `O=C1C(Nc2ccc(S(=O)(=O)Nc3cnc4ccccc4n3)cc2)=C/C(=N\c2ccc(S(=O)(=O)Nc3cnc4ccccc4n3)cc2)c2ccccc21`, for which the GI50 with MDA-N is 18.8 µM (inactive); in the assay on LXFL 529, 15.2 µM (inactive); in the assay with HOP-18, 13.7 µM (inactive); in the assay on Hs-578T, 37.2 µM (inactive); in the assay on XF498, 25.5 µM (inactive); with DMS-273, 12 µM (inactive).

As to `Cc1cc2c(C=O)n[nH]c2c(C#N)c1C`, the GI50 with RXF 631 was 58.5 µM (inactive); in the assay on LXFL 529 it was 34.7 µM (inactive); in the assay with DMS-273, 43.1 µM (inactive).

As for `CC1=C(C(=O)Nc2ccccc2C)C(c2ccccc2O)C(C(=O)Nc2ccccc2C)=C(C)N1`, the GI50 is 20.1 µM (inactive) with LXFL 529, 17.9 µM (inactive) in the assay on HOP-18, 22.3 µM (inactive) with XF498 and 17.7 µM (inactive) with DMS-273.

On to `C/C=C/C1(NS(=O)(=O)c2ccc(C)cc2)CCC(C(C)(C)C)CC1` (stereo unspecified), for which the GI50 in the assay on RXF 631 is 24.7 µM (inactive); in the assay with LXFL 529 it was 37.5 µM (inactive); with HOP-18, 34.9 µM (inactive); with XF498, 20.2 µM (inactive); in the assay on DMS-273, 16 µM (inactive).

Take `[N-]=[N+]=NCC(O)Cn1cnc2c(NC(=O)c3ccccc3)ncnc21` (stereo unspecified): the GI50 in the assay with LXFL 529 was > 100 µM (inactive); in the assay on HOP-18 it was > 100 µM (inactive); with XF498, > 100 µM (inactive); in the assay on DMS-273, 64.4 µM (inactive).

For the compound `CCN(CC)C(=O)c1cccc2c(OC)ccc(OC)c12`, the GI50 in the assay on LXFL 529, in the assay with HOP-18 and in the assay with DMS-273 was > 100 µM (inactive) each time.

In the case of `N#CCCN(c1ccc(/C=N/c2ccccc2Cl)cc1)S(=O)(=O)c1ccccc1`, the GI50 in the assay on RXF 631, in the assay on LXFL 529, with HOP-18, in the assay on XF498 and with DMS-273 was > 100 µM (inactive) in each case.

Consider `CC1(C)C(=NNC(=S)NN)C(C)(C)C1=NNC(=S)NN`, for which the GI50 in the assay with RXF 631 and in the assay with XF498 was > 100 µM (inactive) throughout.

`C/C(=C\Cc1cc(O)ccc1O)CCc1c(C)c(O)c(O)c(C=O)c1C` [PANICEIN C]: the GI50 was 9.64 µM (inactive) in the assay on LXFL 529, 18.7 µM (inactive) with HOP-18, 20 µM (inactive) with XF498 and 27.5 µM (inactive) in the assay on DMS-273.

With `CCOC(=O)/C(=C/c1ccc(C(=O)OC)cc1)N(CC)CC`, the GI50 in the assay with LXFL 529 was 50.6 µM (inactive).

For `Cc1c2nc3ccccc3sc-2cc(=O)c1C`, the GI50 is 41 µM (inactive) in the assay with LXFL 529, > 100 µM (inactive) in the assay with HOP-18, 28.4 µM (inactive) in the assay with XF498 and 50.6 µM (inactive) in the assay on DMS-273.

On to `N#CC(Sc1ccccc1)C(N)=O` (stereo unspecified), for which the GI50 with RXF 631, in the assay on LXFL 529, in the assay with HOP-18, in the assay on XF498 and in the assay on DMS-273 was > 100 µM (inactive) throughout.

As for `CCOC(=O)COc1cccc2c1C(=O)CCO2`, the GI50 in the assay with RXF 631, in the assay with LXFL 529, in the assay on XF498 and in the assay on DMS-273 was > 100 µM (inactive) throughout.

In the case of `c1ccc2c(OCCSCCCCCCCCCCSCCOc3cccc4ccccc34)cccc2c1`, the GI50 in the assay with HOP-18 and with DMS-273 was > 100 µM (inactive) in each case.

For `CC/C(=N/O)c1ccc2[nH]c3c(C)cc([N+](=O)[O-])c(C)c3c2c1`, the GI50 in the assay on HOP-18 is > 100 µM (inactive); with XF498, 50.2 µM (inactive); with DMS-273, 19.4 µM (inactive).

On to `O=C(O)/C(=C\c1ccccc1Cl)S(=O)(=O)c1ccccc1`, for which the GI50 in the assay with RXF 631, in the assay with LXFL 529, in the assay with HOP-18 and with DMS-273 was > 100 µM (inactive) throughout.

On to `COc1ccc2cc(CNCCCN3CCN(CCCNCc4ccc5cc(OC)ccc5c4)CC3)ccc2c1`, for which the GI50 in the assay with BT-549 is 1.78 µM (inactive); with MDA-N it was 1.44 µM (inactive); in the assay on Hs-578T it was 1.52 µM (inactive); in the assay on T47D it was 1.32 µM (inactive).

Consider `COc1cccc(-c2cc(O)c3cc4c(cc3n2)OCO4)c1`, for which the GI50 with RXF 631 was 0.442 µM (active); with LXFL 529, 0.0598 µM (active); in the assay on HOP-18 it was 0.638 µM (active); in the assay on XF498, 0.042 µM (active); in the assay with DMS-273, 0.147 µM (active).

For the compound `CS(=O)(=O)NNS(=O)(=O)c1ccccc1`, the GI50 in the assay with LXFL 529, with XF498 and in the assay on DMS-273 was > 100 µM (inactive) in each case.

For the compound `COC(=O)[C@@H]1[C@@H](c2cccc(Cl)c2)[C@H](C(=O)OC)C2(C[C@@]1(C)O)NCCS2` (stereo partly specified), the GI50 in the assay with BT-549 is > 100 µM (inactive); in the assay on MDA-N, 86.1 µM (inactive); with Hs-578T, > 100 µM (inactive); in the assay with T47D it was 29.6 µM (inactive).

For the compound `CN[C@@H](C)[C@@H](N)c1ccccc1`, the GI50 with RXF 631, in the assay with LXFL 529, in the assay with HOP-18 and in the assay on DMS-273 was > 100 µM (inactive) each time.

With `CC(C)(C)OC(=O)N[C@H]1CC2(C=C(Cl)C(=O)C(Cl)=C2)OC1=O`, the GI50 in the assay on RXF 631 is 16.6 µM (inactive); in the assay with BT-549, 16 µM (inactive); in the assay on MDA-N, 17.1 µM (inactive); in the assay with LXFL 529, 11.4 µM (inactive); in the assay with HOP-18 it was 16.5 µM (inactive); with Hs-578T, 26.4 µM (inactive). In addition, the GI50 in the assay with T47D is 14.9 µM (inactive); in the assay on XF498, 19.3 µM (inactive); in the assay on DMS-273, 18.2 µM (inactive).

As to `CC#CC(OCC)(OCC)OCC`, the GI50 with LXFL 529 is > 100 µM (inactive); with HOP-18, > 100 µM (inactive); in the assay with XF498 it was > 100 µM (inactive); with DMS-273 it was 20.6 µM (inactive).

`CCc1n[nH]c(=O)n1/N=C/c1ccccc1Cl`: the GI50 with BT-549 is > 100 µM (inactive); in the assay on MDA-N, > 100 µM (inactive); with Hs-578T, 2.69 µM (inactive); in the assay with T47D it was > 100 µM (inactive).

Take `Nc1nc2sc3ccccc3c(=O)n2n1`: the GI50 in the assay on LXFL 529, in the assay on HOP-18, with XF498 and in the assay with DMS-273 was > 100 µM (inactive) each time.

For the origin of these results see ChEMBL document CHEMBL1201862, “PubChem BioAssay data set” (2004).
